Experimental data reported in publication PMC9081086, “Stapling strategy enables improvement of antitumor activity and proteolytic stability of host-defense peptide hymenochirin-1B” (RSC Advances, 2018).
Positions of bridges follow the written chain, without caps; N, C: chain ends. Non-standard residues stand in square brackets, D forms with d. Residues, ends and D or L forms follow the SMILES beside them. R8 = C=CCCCCCC[C@@](C)(N)C(=O)O; S5 = C=CCCC[C@](C)(N)C(=O)O

What was measured:
[1] = Circular dichroism, α-helicity; format: physicochemical; conditions: CD, TFE/water (1:1), 50 μM peptide, 25 °C, 1 mm cuvette, calculated from [θ]222
Method: The linear and stapled peptides were dissolved in the trifluoroethanol (TFE) and water (1 : 1) to a final concentration of 50 μM, respectively. The CD spectra were obtained with 1 mm quartz cuvette on Jasco-815 spectropolarimeter at 25 °C. The measurement parameters were set up as follows: wavelength, 185–260 nm; step resolution, 0.5 nm; speed, 20 nm min^−1. All spectra were converted to a uniform scale of molar ellipticity after background subtraction. The curves were smoothed using standard parameters. The ellipticity in the acquired CD spectra was converted to the molar ellipticity using the equation: [θ] = θ/(10 × c × l), where, [θ] is the Molar ellipticity (deg cm^2. d mol^−1), θ is the observed ellipticity corrected for the buffer at a given wavelength (m deg), c is the molar concentration and l is the path length (cm). The helicity of each peptide was calculated as described in a literature based on the ellipticity of the peptide's spectrum at 222 nm and the number of amino acids in the peptide sequence.
Circular dichroism (CD) spectroscopy was used to investigate the secondary structures of the stapled and template peptides to probe structural changes induced by conformation constraint in a membrane-like milieu, including […] (TFE) and water (1 : 1). […] (Table 1, ESI ^†).

[2] = test system: human normal liver cell LO-2; experiment: MTT toxicity against normal cells, LO-2; format: cell-based; conditions: 96 h
Method: (§1) Anti-tumor activity was evaluated by the standard MTT assay with a slight modification measuring the median inhibitory concentration (IC50) values.[35] HCT-116 cells, HepG2 cells and A549 cells were plated in triplicate wells into a 96-well plate at 5 × 10^3/well and cultured routinely for 24 h. Cells were incubated with increasing concentrations of hymenochirin-1B and its analogs (0.1–30 μM) and continued to culture with DMEM plus 10% FBS at 37 °C and 5% CO2. After being incubated for 96 h, the absorbance A value was determined by MTT at 540 nm. The untreated HCT-116 cells, HepG2 cells and A549 cells were used as control. Each experiment was performed in duplicate. The inhibitory rate was calculated according to the following formula: inhibitory rate = (a value of the control group − a value of the study group)/a value of the control group × 100%.
(§2) To further research the selectivity of these peptides towards cancer cells over normal cells. The growth-inhibitory activities of peptides were evaluated using the 3-(4,5-dimethylthiazol-2-yl)-2,5-diphenyltetrazolium bromide (MTT) assay against three normal cells,[35] namely, human normal liver cell LO-2, human normal Lung cell BEAS-2 and human normal kidney cell 293 T (Table S2 ^†). The experiments procedure was performed just same as growth inhibition of the peptides against tumor cells. […] It might be due to the higher averaged hydrophobicity produced by six or nine additional methylene and two olefinic carbons to the peptide to increase toxicity to human normal cells. This situation may be resolved through the addition of polar character and glycosylation into the sequence to decrease the averaged hydrophobicity to improve the selectivity of these peptides towards cancer cells over normal cells. These modifications of these peptides are under way, and the present study was focused on the improved anti-tumor activity of template peptide hymenochirin-1B.

[3] = test system: human normal Lung cell BEAS-2; experiment: MTT toxicity against normal cells, BEAS-2B; format: cell-based; conditions: 96 h
Method: as §1, §2

[4] = test system: human normal kidney cell 293 T; experiment: MTT toxicity against normal cells, 293T; format: cell-based; conditions: 96 h
Method: as §1, §2

Structure (SMILES)	Helicity (%) [1] [%]	IC50 (μM) LO-2, toxicity against normal cells [2] [µM]	IC50 (μM) BEAS-2B, toxicity against normal cells [3] [µM]	IC50 (μM) 293T, toxicity against normal cells [4] [µM]
CC[C@H](C)[C@H](N)C(=O)N[C@@H](CCCCN)C(=O)N[C@@H](CC(C)C)C(=O)N[C@@H](CO)C(=O)N[C@@]1(C)CCCC=CCCC[C@@](C)(C(=O)N[C@@H](CC(N)=O)C(=O)N[C@@H](CC(C)C)C(=O)N[C@@H](CCCCN)C(=O)N[C@@H](CCCCN)C(=O)N[C@H](C(=O)N[C@@H](CC(C)C)C(=O)N[C@@H](CCCCN)C(=O)NCC(=O)N[C@@H](C)C(=O)N[C@H](C(=O)N[C@@H](CCCCN)C(=O)NCC(=O)N[C@@H](C)C(=O)N[C@H](C(=O)N[C@@H](C)C(=O)N[C@H](C(=O)N[C@@H](C)C(=O)N[C@@H](CCCCN)C(=O)N[C@@H](CCSC)C(=O)N[C@H](C(N)=O)C(C)C)C(C)C)[C@@H](C)CC)[C@@H](C)CC)C(C)C)NC(=O)[C@H](CCCCN)NC(=O)[C@H]([C@@H](C)O)NC(=O)[C@H](CCC(=O)O)NC1=O [H-1] (H-IKLS[S5]ETK[S5]NLKKVLKGAIKGAIAVAKMV-NH2; staple 5-9)	49.0	7.80 ± 0.21	9.61 ± 0.35	5.82 ± 0.45
CC[C@H](C)[C@H](N)C(=O)N[C@@H](CCCCN)C(=O)N[C@@H](CC(C)C)C(=O)N[C@@H](CO)C(=O)N1CCC[C@H]1C(=O)N[C@@H](CCC(=O)O)C(=O)N[C@H](C(=O)N[C@@H](CCCCN)C(=O)N[C@@H](CC(=O)O)C(=O)N[C@@H](CC(N)=O)C(=O)N[C@@H](CC(C)C)C(=O)N[C@@H](CCCCN)C(=O)N[C@@H](CCCCN)C(=O)N[C@H](C(=O)N[C@@H](CC(C)C)C(=O)N[C@@H](CCCCN)C(=O)N[C@]1(C)CCCCCCC=CCCC[C@@](C)(C(=O)N[C@H](C(=O)N[C@@H](C)C(=O)N[C@@H](CCCCN)C(=O)N[C@@H](CCSC)C(=O)N[C@H](C(N)=O)C(C)C)C(C)C)NC(=O)[C@H]([C@@H](C)CC)NC(=O)[C@H](C)NC(=O)CNC(=O)[C@H](CCCCN)NC(=O)[C@H]([C@@H](C)CC)NC(=O)[C@H](C)NC1=O)C(C)C)[C@@H](C)O [H-4] (H-IKLSPETKDNLKKVLK[R8]AIKGAI[S5]VAKMV-NH2; staple 17-24)	66.3	–	–	–
CC[C@H](C)[C@H](N)C(=O)N[C@@H](CCCCN)C(=O)N[C@@H](CC(C)C)C(=O)N[C@@H](CO)C(=O)N1CCC[C@H]1C(=O)N[C@@H](CCC(=O)O)C(=O)N[C@H](C(=O)N[C@@H](CCCCN)C(=O)N[C@@H](CC(=O)O)C(=O)N[C@@H](CC(N)=O)C(=O)N[C@@H](CC(C)C)C(=O)N[C@@H](CCCCN)C(=O)N[C@@H](CCCCN)C(=O)N[C@H](C(=O)N[C@@H](CC(C)C)C(=O)N[C@@H](CCCCN)C(=O)N[C@@]1(C)CCCC=CCCC[C@@](C)(C(=O)N[C@@H](C)C(=O)N[C@H](C(=O)N[C@@H](C)C(=O)N[C@H](C(=O)N[C@@H](C)C(=O)N[C@@H](CCCCN)C(=O)N[C@@H](CCSC)C(=O)N[C@H](C(N)=O)C(C)C)C(C)C)[C@@H](C)CC)NC(=O)[C@H](CCCCN)NC(=O)[C@H]([C@@H](C)CC)NC(=O)[C@H](C)NC1=O)C(C)C)[C@@H](C)O [H-9] (H-IKLSPETKDNLKKVLK[S5]AIK[S5]AIAVAKMV-NH2; staple 17-21)	–	8.56 ± 0.32	7.72 ± 0.36	8.66 ± 0.23
